Reference: PMC12057341, “In vitro pharmacokinetic/pharmacodynamic modeling of the effect of mucin on polymyxin B activity against Acinetobacter baumannii” (Antimicrobial Agents and Chemotherapy, 2025)
Where a SMILES comes first, the peptide text is derived from it. Bridges are numbered along the chain shown (N, C = ends). [ ]: non-standard residue; d: D form. The star is where a group is joined. X1 = CC[C@H](C)CCCCC(=O)*; Dab = NCC[C@H](N)C(=O)O

Tested on: mucin from the porcine stomach
Assay: PMB binding to mucin by ultracentrifugation in CAMHB with 1% mucin
Format: in vitro ADME
Set-up: Unbound conc.: unit not given here
Conditions: CAMHB + 1% mucin
Method: Mucin from the porcine stomach was obtained from Sigma-Aldrich (Merck KGaA, Saint-Quentin Fallavier, France) and solubilized in NaCl 0.9% to obtain a solution at 20% (pH adjusted to 7). The solution was autoclaved at 110°C for 15 minutes.
PMB solutions at concentrations ranging from 0.5 to 10,000 mg/L in CAMHB with 1% mucin were incubated for 1 h at 35°C, then ultracentrifuged at ~290 000 g for 5 h at room temperature (Beckman Optima LE-80K, rotor: Beckman Coulter 70.1 Ti), according to a method previously described ([35]). Unbound PMB concentrations in the supernates were determined by LC-MS/MS (method adapted from a previous publication ([36]) and detailed in Supplemental material) and used to determine the unbound fraction (fu) of PMB. Potential PMB sedimentation ([37]) during experimentation was determined from PMB solutions prepared in mucin-free CAMHB and subjected to the same ultracentrifugation conditions as previously described, and then used to correct for unbound PMB concentrations.
The same procedure was performed with a nonautoclaved mucin solution. Experiments were done in triplicate.
The relationship between fu and PMB total concentrations was modeled according to a sigmoidal Emax function (equation 1):
(1) fu=E0+ Imax × C^ε/IC50ε+ C^ε,
where E0 represents the minimum fu, Imax the maximum increase in fu, IC50 (mg/L) corresponds to PMB total concentration needed to reach 50% of Imax, C (mg/L) to the PMB total concentration, and ε to the Hill coefficient.
Parameter estimation was performed using nonlinear regression with iteratively reweighted least squares (R, version 4.1.3 – Package: robustbase, version 0.99–0). Two sets of parameters were estimated, one for the data generated with autoclaved mucin, another for the data generated without autoclave. The two sets of parameters were compared using ANOVA testing.

[1] = simulated with equation 1, autoclaved mucin parameters, total conc. 5000
[2] = simulated with equation 1, autoclaved mucin parameters, total conc. 10000
[3] = simulated with equation 1, non-autoclaved mucin parameters, total conc. 0.5
[4] = simulated with equation 1, non-autoclaved mucin parameters, total conc. 1
[5] = simulated with equation 1, non-autoclaved mucin parameters, total conc. 2
[6] = simulated with equation 1, non-autoclaved mucin parameters, total conc. 4
[7] = simulated with equation 1, non-autoclaved mucin parameters, total conc. 8
[8] = simulated with equation 1, non-autoclaved mucin parameters, total conc. 10
[9] = simulated with equation 1, non-autoclaved mucin parameters, total conc. 50
[10] = simulated with equation 1, non-autoclaved mucin parameters, total conc. 100
[11] = simulated with equation 1, non-autoclaved mucin parameters, total conc. 500
[12] = simulated with equation 1, non-autoclaved mucin parameters, total conc. 1000
[13] = simulated with equation 1, non-autoclaved mucin parameters, total conc. 5000
[14] = simulated with equation 1, non-autoclaved mucin parameters, total conc. 10000
[15] = simulated with equation 1, pooled data parameters, total conc. 0.5
[16] = simulated with equation 1, pooled data parameters, total conc. 1
[17] = simulated with equation 1, pooled data parameters, total conc. 2
[18] = simulated with equation 1, pooled data parameters, total conc. 4
[19] = simulated with equation 1, pooled data parameters, total conc. 8
[20] = simulated with equation 1, pooled data parameters, total conc. 10
[21] = simulated with equation 1, pooled data parameters, total conc. 50
[22] = simulated with equation 1, pooled data parameters, total conc. 100
[23] = simulated with equation 1, pooled data parameters, total conc. 500
[24] = simulated with equation 1, pooled data parameters, total conc. 1000
[25] = simulated with equation 1, pooled data parameters, total conc. 5000
[26] = simulated with equation 1, pooled data parameters, total conc. 10000

CC[C@H](C)CCCCC(=O)N[C@@H](CCN)C(=O)N[C@H](C(=O)N[C@@H](CCN)C(=O)N[C@H]1CCNC(=O)[C@H]([C@@H](C)O)NC(=O)[C@H](CCN)NC(=O)[C@H](CCN)NC(=O)[C@H](CC(C)C)NC(=O)[C@@H](Cc2ccccc2)NC(=O)[C@H](CCN)NC1=O)[C@@H](C)O [PMB, polymyxin B] (X1-[Dab]T[Dab][Dab][Dab][dF]L[Dab][Dab]T; lactam 4-C)
fu (95% CI) (simulated with equation 1, autoclaved mucin parameters, total conc. 1000): 62.1 (57.2 – 67.1) % | Unbound conc. [1]: 3120 | fu (95% CI) [1]: 62.5 (57.1 – 67.9) % | Unbound conc. [2]: 6250 | fu (95% CI) [2]: 62.5 (57.1 – 68.0) % | Unbound conc. [3]: 0.03 | fu (95% CI) [3]: 5.6 (2.1 - 9.1) % | Unbound conc. [4]: 0.06 | fu (95% CI) [4]: 5.6 (2.1 - 9.1) % | Unbound conc. [5]: 0.11 | fu (95% CI) [5]: 5.6 (2.2 - 9.1) % | Unbound conc. [6]: 0.23 | fu (95% CI) [6]: 5.7 (2.3 - 9.1) % | Unbound conc. [7]: 0.48 | fu (95% CI) [7]: 5.9 (2.7 - 9.1) % | Unbound conc. [8]: 0.61 | fu (95% CI) [8]: 6.1 (3.0 - 9.2) % | Unbound conc. [9]: 7.08 | fu (95% CI) [9]: 14.2 (10.5 – 17.8) % | Unbound conc. [10]: 27.9 | fu (95% CI) [10]: 27.9 (23.8 – 32.1) % | Unbound conc. [11]: 293 | fu (95% CI) [11]: 58.6 (54.6 - 62.6) % | Unbound conc. [12]: 615 | fu (95% CI) [12]: 61.5 (58.4 – 64.7) % | Unbound conc. [13]: 3130 | fu (95% CI) [13]: 62.7 (58.6 – 66.7) % | Unbound conc. [14]: 6270 | fu (95% CI) [14]: 62.7 (58.6 - 66.9) % | Unbound conc. [15]: 0.03 | fu (95% CI) [15]: 6.1 (2.1 - 10.0) % | Unbound conc. [16]: 0.06 | fu (95% CI) [16]: 6.1 (2.1 - 10.0) % | Unbound conc. [17]: 0.12 | fu (95% CI) [17]: 6.1 (2.2 - 10.0) % | Unbound conc. [18]: 0.25 | fu (95% CI) [18]: 6.1 (2.3 - 10.0) % | Unbound conc. [19]: 0.51 | fu (95% CI) [19]: 6.4 (2.7 - 10.0) % | Unbound conc. [20]: 0.65 | fu (95% CI) [20]: 6.5 (3.0 - 10.1) % | Unbound conc. [21]: 7.62 | fu (95% CI) [21]: 15.2 (10.7 - 19.7) % | Unbound conc. [22]: 30.4 | fu (95% CI) [22]: 30.4 (25.6 - 35.2) % | Unbound conc. [23]: 296 | fu (95% CI) [23]: 59.2 (55.1 - 63.2) % | Unbound conc. [24]: 613 | fu (95% CI) [24]: 61.3 (58.2 - 64.4) % | Unbound conc. [25]: 3100 | fu (95% CI) [25]: 62.1 (58.4 - 65.8) % | Unbound conc. [26]: 6210 | fu (95% CI) [26]: 62.1 (58.3 - 65.8) %
